From ChEMBL document CHEMBL4130400, “Development of GLUT4-selective antagonists for multiple myeloma therapy” (Eur J Med Chem, 2017) come the findings set out here.

Test [1] deals with T1, Solute carrier family 2, facilitated glucose transporter member 1 (Rattus norvegicus) (UniProt P11167).
T1 sequence (whole entry): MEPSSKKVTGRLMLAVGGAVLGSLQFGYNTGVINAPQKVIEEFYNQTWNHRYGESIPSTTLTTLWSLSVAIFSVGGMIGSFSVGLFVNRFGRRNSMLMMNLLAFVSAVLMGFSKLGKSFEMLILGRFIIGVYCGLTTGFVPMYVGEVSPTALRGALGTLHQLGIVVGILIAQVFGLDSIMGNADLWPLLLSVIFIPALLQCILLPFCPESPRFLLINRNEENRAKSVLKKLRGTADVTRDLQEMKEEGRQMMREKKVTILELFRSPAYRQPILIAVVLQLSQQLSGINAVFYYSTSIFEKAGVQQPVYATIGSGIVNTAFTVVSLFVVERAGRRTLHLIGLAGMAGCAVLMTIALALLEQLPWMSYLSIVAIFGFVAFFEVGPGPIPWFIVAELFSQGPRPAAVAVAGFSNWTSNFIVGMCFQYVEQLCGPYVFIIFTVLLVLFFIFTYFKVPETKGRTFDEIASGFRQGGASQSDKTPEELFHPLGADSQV
The test is described as follows: Displacement of ATB-BMPA from rat C-terminal 6His/Myc-tagged GLUT1 expressed in HEK293 cell low density microsome at 20 uM preincubated for 10 mins followed by ATB-BMPA addition measured after 10 mins. In kind it is cell-based.

In test [2] the target is T2, Solute carrier family 2, facilitated glucose transporter member 4 (Rattus norvegicus) (UniProt P19357).
T2 sequence (whole entry): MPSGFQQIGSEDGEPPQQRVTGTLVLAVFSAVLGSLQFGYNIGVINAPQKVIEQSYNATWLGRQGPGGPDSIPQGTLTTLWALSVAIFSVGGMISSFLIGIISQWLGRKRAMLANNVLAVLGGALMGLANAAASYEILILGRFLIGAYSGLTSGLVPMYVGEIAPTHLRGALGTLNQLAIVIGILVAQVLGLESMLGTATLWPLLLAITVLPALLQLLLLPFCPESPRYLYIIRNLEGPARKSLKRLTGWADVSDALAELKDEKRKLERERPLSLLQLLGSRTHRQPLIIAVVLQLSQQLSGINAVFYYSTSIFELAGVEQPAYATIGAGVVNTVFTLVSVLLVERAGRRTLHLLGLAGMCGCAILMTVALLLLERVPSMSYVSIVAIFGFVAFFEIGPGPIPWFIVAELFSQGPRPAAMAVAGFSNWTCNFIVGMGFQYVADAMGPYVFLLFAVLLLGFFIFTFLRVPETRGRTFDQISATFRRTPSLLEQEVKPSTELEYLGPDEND
The test is described as follows: Displacement of ATB-BMPA from rat C-terminal 6His/Myc-tagged GLUT4 expressed in HEK293 cell low density microsome at 20 uM preincubated for 10 mins followed by ATB-BMPA addition measured after 10 mins. It is filed as cell-based.

Test [3] addresses T3, Solute carrier family 2, facilitated glucose transporter member 8 (Homo sapiens, UniProt Q9NY64).
T3 sequence (Q9NY64 whole entry): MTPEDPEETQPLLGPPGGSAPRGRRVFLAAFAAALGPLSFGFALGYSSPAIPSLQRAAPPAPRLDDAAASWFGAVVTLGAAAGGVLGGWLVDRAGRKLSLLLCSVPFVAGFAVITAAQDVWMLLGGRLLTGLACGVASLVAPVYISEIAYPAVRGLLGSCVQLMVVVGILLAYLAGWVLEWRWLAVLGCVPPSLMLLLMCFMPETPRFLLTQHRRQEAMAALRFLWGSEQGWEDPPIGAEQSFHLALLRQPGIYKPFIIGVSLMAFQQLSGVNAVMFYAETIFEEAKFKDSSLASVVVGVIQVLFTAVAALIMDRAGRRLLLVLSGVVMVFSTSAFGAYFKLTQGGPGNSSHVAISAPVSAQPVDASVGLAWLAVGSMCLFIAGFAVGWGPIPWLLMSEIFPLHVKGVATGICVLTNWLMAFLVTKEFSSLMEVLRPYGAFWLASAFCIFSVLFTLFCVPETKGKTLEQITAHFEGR
The test is described as follows: Antagonist activity at human GLUT8 expressed in HEK293 cells transfected with GLUT1 shRNA assessed as inhibition of [3H]2-deoxy-D-glucose uptake preincubated for 5 mins followed by [3H]2-deoxy-D-glucose addition and measured after 6 mins. In kind it is cell-based.

The target in test [4] is T4, Solute carrier family 2, facilitated glucose transporter member 4 (Homo sapiens, UniProt P14672).
T4 sequence (P14672 whole entry): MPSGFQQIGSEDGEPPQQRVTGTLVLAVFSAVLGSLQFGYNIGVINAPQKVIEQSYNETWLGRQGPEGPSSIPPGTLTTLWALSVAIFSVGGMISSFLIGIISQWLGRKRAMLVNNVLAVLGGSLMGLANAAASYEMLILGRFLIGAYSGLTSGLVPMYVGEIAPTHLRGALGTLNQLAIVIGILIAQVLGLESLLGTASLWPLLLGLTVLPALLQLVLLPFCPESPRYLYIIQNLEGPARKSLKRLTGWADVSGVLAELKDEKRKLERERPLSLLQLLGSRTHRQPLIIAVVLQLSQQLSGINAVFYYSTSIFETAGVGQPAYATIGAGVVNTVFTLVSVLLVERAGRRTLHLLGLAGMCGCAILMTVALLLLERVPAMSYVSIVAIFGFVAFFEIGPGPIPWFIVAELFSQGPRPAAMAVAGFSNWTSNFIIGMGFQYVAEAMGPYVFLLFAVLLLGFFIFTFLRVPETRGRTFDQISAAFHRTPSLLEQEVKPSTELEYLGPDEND
The experiment in a line: Antagonist activity at human GLUT4 expressed in HEK293 cells transfected with GLUT1 shRNA assessed as inhibition of [3H]2-deoxy-D-glucose uptake preincubated for 5 mins followed by [3H]2-deoxy-D-glucose addition and measured after 6 mins. In kind it is cell-based.

The target of test [5] is T5, Solute carrier family 2, facilitated glucose transporter member 1 (Homo sapiens, UniProt P11166).
T5 sequence (P11166 whole entry): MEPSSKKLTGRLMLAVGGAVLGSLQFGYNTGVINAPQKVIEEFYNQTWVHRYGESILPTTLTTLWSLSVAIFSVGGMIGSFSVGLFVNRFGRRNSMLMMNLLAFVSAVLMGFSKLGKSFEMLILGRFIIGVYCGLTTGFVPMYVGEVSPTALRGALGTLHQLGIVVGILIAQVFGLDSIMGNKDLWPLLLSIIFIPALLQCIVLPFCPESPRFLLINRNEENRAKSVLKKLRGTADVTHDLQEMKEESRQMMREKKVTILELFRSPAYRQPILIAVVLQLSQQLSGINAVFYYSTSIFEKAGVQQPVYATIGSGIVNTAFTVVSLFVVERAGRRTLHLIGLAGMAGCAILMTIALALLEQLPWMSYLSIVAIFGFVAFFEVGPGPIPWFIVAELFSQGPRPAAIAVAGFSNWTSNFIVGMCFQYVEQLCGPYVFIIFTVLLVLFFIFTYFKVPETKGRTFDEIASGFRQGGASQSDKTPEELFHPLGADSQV
The experiment in a line: Antagonist activity at human GLUT1 expressed in HEK293 cells transfected with GLUT1 shRNA assessed as inhibition of [3H]2-deoxy-D-glucose uptake preincubated for 5 mins followed by [3H]2-deoxy-D-glucose addition and measured after 6 mins. It is filed as cell-based.

The next test deals with KMS-11. The experiment in a line: Antiproliferative activity against human KMS11 cells over-expressing GFP after 72 hrs by CellTiter-Glo assay. It is filed as functional, cell-based. To be noted: KMS-11, 72 h.
Test [6] concerns the target T6, Solute carrier family 2, facilitated glucose transporter member 4 (Rattus norvegicus, UniProt P19357).
T6 sequence (P19357 whole entry): T2 sequence (whole entry)
The test is described as follows: Antagonist activity at GLUT4 in rat adipocytes assessed as reduction in insulin-stimulated [3H]2-deoxyglucose uptake preincubated for 1 min followed by [3H]2-deoxyglucose addition measured after 1 min by liquid scintillation counting analysis. In kind it is cell-based.

The source made the active and inactive calls. No cut-off for these calls is given here. Where a SMILES comes first, the peptide text is derived from it. The star is where a group is joined. Cbz = O=C(OCc1ccccc1)*

For the compound `COc1ccc(C(=O)N(Cc2ccncc2)Cc2cccc(OCCc3ccc(F)cc3)c2)cc1`, the outcome in test [1] and in test [2] was Active. Besides, the IC50 (as a rule, the concentration that inhibits the measured activity by half) was 6 µM in test [3], 1.7 µM in test [4] and > 100 µM in test [5]. For `COc1ccc(C(=O)N(Cc2ccncc2)Cc2cccc(OCC(=O)c3ccc(Cl)cc3)c2)cc1`, in the test on KMS-11, the IC50 was found to be 18.5 µM. Turning to `COc1ccc(C(=O)N(Cc2ccncc2)Cc2cccc(OCc3cccc(OC)c3)c2)cc1`, the concentration for half-maximal inhibition (IC50) in the test with KMS-11 was 16.9 µM; in test [4] it was 11 µM. Regarding `COc1ccc(C(=O)N(Cc2ccncc2)Cc2cccc(OCCc3ccccc3)c2)cc1`, the IC50 with KMS-11 was found to be 16.9 µM. In the test on KMS-11, `COc1ccc(C(=O)N(Cc2ccncc2)Cc2cccc(OCC3CCOCC3)c2)cc1` displayed a concentration for half-maximal inhibition (IC50) of 17.7 µM. In the test on KMS-11, `COc1ccc(C(=O)N(Cc2ccncc2)Cc2cccc(OCC3CCCCC3)c2)cc1` gave an IC50 of 19.7 µM. Compound `COc1ccc(C(=O)N(Cc2ccncc2)Cc2cccc(OCc3cccc([N+](=O)[O-])c3)c2)cc1` had an IC50 in the test with KMS-11 of 19.6 µM. `COc1ccc(C(=O)N(Cc2ccncc2)Cc2cccc(OCc3ccc(F)cc3)c2)cc1`: the IC50 with KMS-11 came out at 22.7 µM. As to `CCOC(=O)[C@H](Cc1ccccc1)NC(=O)[C@H](Cc1ccccc1)NC(=O)[C@H](Cc1cnc[nH]1)NC(=O)OCc1ccccc1` (Cbz-His-Phe-Phe-OEt), the Ki (in general, a dissociation constant, usually derived from enzyme kinetics or from competition with a known ligand) in test [6] stood at 26 µM. Regarding `COc1ccc(C(=O)N(Cc2ccncc2)Cc2cccc(OCCc3ccc(Br)cc3)c2)cc1`, the IC50 with KMS-11 came to 8.4 µM. Same read-out and setting: the same measure for `COc1ccc(C(=O)N(Cc2ccncc2)Cc2cccc(OCCc3ccc(C)cc3)c2)cc1`: 9.1 µM.

Consider `COc1ccc(C(=O)N(Cc2ccncc2)Cc2cccc(OCCc3cccc(C(F)(F)F)c3)c2)cc1`, for which the midpoint of inhibition in the test with KMS-11, the IC50, lay at 8.9 µM. Still for that read-out and setting: the same measure for `COc1ccc(C(=O)N(Cc2ccncc2)Cc2cccc(OCC(=O)c3cccc(Br)c3)c2)cc1`: 18.7 µM. With `COc1ccc(C(=O)N(Cc2ccncc2)Cc2cccc(OCc3ccc([N+](=O)[O-])cc3)c2)cc1`, the IC50 in the test with KMS-11 is 15.4 µM. In the test with KMS-11, `COc1ccc(C(=O)N(Cc2ccncc2)Cc2cccc(OCC3CCN(C(=O)OC(C)(C)C)CC3)c2)cc1` came in with an IC50 of 5.1 µM. The same measure, in the same setting: to `O=C(c1ccc(Cl)cc1)N(Cc1ccncc1)Cc1cccc(OCCc2ccc(F)cc2)c1` belongs 13.1 µM. With `Oc1cccc(CNCc2ccncc2)c1`, the IC50 in test [3] was > 100 µM; in test [4], 20 µM; in test [5] it was > 100 µM. In the test on KMS-11, `COc1ccc(C(=O)N(Cc2ccncc2)Cc2cccc(OCc3ccc(C(F)(F)F)cc3)c2)cc1` had an IC50 of 14.3 µM.
